Data on 12 compounds can be found in patent US20240000950A1, “THERAPEUTIC CURE-PRO COMPOUNDS FOR TARGETED DEGRADATION OF BET DOMAIN PROTEINS, AND METHODS OF MAKING AND USING THEM” (CORNELL UNIVERSITY, priority 2020, published 2024).

One experiment has as its system MV-4-11 cells. As to the kind of experiment: CellTiter-Glo cell viability, MV-4-11 cells. Format: cell-based. The procedure: All cell lines were purchased from ATCC or DSMZ and grown at 37° C. with 5% C02. Human HeLa cells were cultured in complete growth medium (Dulbecco's modified Eagle's medium (DMEM) supplemented with 10% FBS); MCF7 cells were cultured in complete growth medium (Dulbecco's modified Eagle's medium (DMEM) supplemented with 10% FBS and 0.01 mg/ml human recombinant insulin (Sigma Aldrich); Namalwa and MOLM-13 cells were cultured in complete growth medium (RPMI 1640 medium supplemented with 10% FBS); MV-4-11 were cultured in complete growth medium (Iscove's Modified Dulbecco's medium, supplemented with 10% FBS); HCT116 cells were cultured in complete growth medium (McCoy's 5a Medium supplemented with 10% FBS). For cellular degradation of BRD4 studies, cells were seeded in a 12-well plate at 70-80% confluency, allowed to attach overnight, and incubated with the indicated compounds for the indicated time. When indicated, a 15-minute pretreatment with 10 μM pomalidomide, 10 μM VHL298, 10 μM Nutlin3a, 1 μM MG-132 or 1 μM Carfilzomib was performed before the addition of CURE-PROs. For washout studies, after CURE-PRO treatment, media was aspirated and incubated with complete medium for the indicated time before lysis.
CellTiter-Glo® 2.0 Cell Viability Assay (Promega) was carried out following the manufacturer's recommendations. Cells were seeded at a density of 1000 cells/well in a white 96 well plates (Corning, #3917) in a total volume of 100 μl with respective monomers, combinations of BRD ligands together with E3 ligase ligands or vehicle control treatment. After a 72 h incubation, 100 ul of the CellTiter-Glo® substrate was added per well and luminescence was read on a Spectramax M5 (Molecular Devices). Dose-response curves were generated using Graphpad Prism software.
MV-4-11 cells (5×104) were treated for 24 hours with the sample compounds solubilized in DMSO. The compounds were added at 1 nM-100 μM each. Cellular viability was determined using the CellTiter-Glo® Luminescent Cell Viability Assay (Promega) described above. FIGS. 19-22 depict the CURE-PRO-mediated loss of cellular viability for BRD monomers (JQ1 derivatives comprising of catechol linkers), and CRBN ligand, 8049 (pomalidomide derivatives comprising boronic acid linkers) combined in a 1:1 ratio.
MV-4-11 cells (1×104) were treated for 72 hours with the compounds solubilized in DMSO. Compounds were added at 10 nM-100 μM each. Cellular viability was determined using the CellTiter-Glo® Luminescent Cell Viability Assay (Promega) described above. FIGS. 47-54 depict the CURE-PRO-mediated loss of cellular viability for BRD monomers (JQ1 derivatives comprising of boronic acid linkers), and CRBN ligands, 8046, 8047, and 8066 (pomalidomide derivatives comprising diol linkers) combined in a 1:1 ratio.
(In ATP-based viability assays light output follows the ATP content of the culture.)

For a further experiment, the target named is BRD4 (Homo sapiens, UniProt O60885). As to the kind of experiment: Summary of E3 ligase directed degradation of BRD4, estimated from Western Blot or WES (Tables 1-6). The following applies: for Degradation of BRD4, combination with CRBN ligand [drawing 457]: aryl-boronic acid-containing CRBN ligand drawn as drawing 457 (by the text apparently 8048). More on the design: endogenous in cells; host or cells: HeLa, MCF7 or HCT116. The experiment is classed as cell-based. As for the experimental part:
HeLa, MCF7, or HCT116 cells (2.5-3×10^6) were treated for 24 hours with the indicated compounds solubilized in DMSO. The cells were washed in ice-cold PBS and were then lysed in RIPA lysis buffer (150 mM NaCl, 5 mM EDTA, 1% NP-40, 0.5% sodium deoxycholate, 0.1% SDS, 50 mM Tris, pH 8.0) with Roche protease inhibitor complete cocktail and phosphatase inhibitors (10 mM sodium fluoride, 10 mM sodium pyrophosphate, 1 mM sodium orthovanadate and 20 mM β-glycerophosphate). The total protein concentrations were determined by Bradford Protein Assay and 10-20 μg of protein was loaded onto 4-15% Tris-Glycine gradient gels (Biorad). After standard gel electrophoresis, the separated proteins were transferred to PVDF membrane by wet transfer. The immunoblots were then blocked for 1 hour in 5% skim milk in TBST or 5% BSA in TBST, according to manufacturer's instructions, before an overnight incubation at 4° C. with indicated antibodies and membranes. Membranes were then incubated with the appropriate horseradish peroxidase-conjugated secondary antibodies (1:5,000 dilution) for 1 h at room temperature and the bands were visualized using the Clarity Max Western ECL Substrate (Biorad) and the ChemiDoc Imaging System (Biorad). Signal was detected with ECL Western Blotting Substrate (Pierce) and X-ray film processed with a Konica SRX-101 X-ray film processor or captured by Bio-Rad's Chemidoc Imaging system.
WES Simple analysis was performed on WES system (ProteinSimple-Biotechne) according to the manufacturer's instructions. Total protein concentrations of cell lysates were determined by the Pierce BCA kit (Thermo Fisher). 3 μL of 0.3 μg/uL of the protein lysate was loaded onto a 12- to 230-kDa WES assay plate (ProteinSimple) where 300 nL sample was withdrawn through a capillary, subjected to electrophoretic separation of proteins by size, and followed by the simultaneous, HRP-based detection of proteins using the Anti-Rabbit Detection Module (Proteinsimple: #DM-001). The electropherograms were checked then the automatic peak detection was manually corrected if it was required.
A black check mark indicates efficacy of 30% to 70% or higher protein degradation.

[1] abbreviates: 72 h, 10 nM-100 μM, cotreated 1:1 with each of CRBN ligands 8066, 8046 and 8047, compared to monomers alone.

Structures are written as SMILES. “Also recorded” adds a separate entry of the source.

As to `CCNC(=O)C[C@@H]1N=C(c2ccc(Cl)cc2)c2cc(OCCCCC(=O)Nc3cccc(B(O)O)c3)ccc2-n2c(C)nnc21` [BRD-E20, (3-(5-(((4S)-6-(4-chlorophenyl)-4-(2-(ethylamino)-2-oxoethyl)-1-methyl-4H-benzo[f][1,2,4]triazolo[4,3-a][1,4]diazepin-8-yl)oxy)pentanamido)phenyl)boronic acid], the “toxicity / loss of cellular viability (CellTiter-Glo)” value (from here on “toxicity / loss of cellular viability”) in the experiment with MV-4-11 cells (setting [1]) is given as “reduced viability; also recorded: increased toxicity”. Besides, the “Degradation of BRD4, combination with CRBN ligand [drawing 422]” value on BRD4 (Table 1, CRBN ligand drawn as drawing 422 (by the text apparently 8066)) was “✓ (A black check mark indicates efficacy of 30% to 70% or higher protein degradation)”. The “Degradation of BRD4, combination with CRBN ligand [drawing 397]” value on BRD4 (Table 1, aromatic 1,2-diol- or hindered cis-1,2-diol-containing CRBN ligand drawn as drawing 397 (by the text apparently 8046)) is “✓ (A black check mark indicates efficacy of 30% to 70% or higher protein degradation)”. Also, at BRD4 (Table 2, aromatic 1,2-diol-containing MDM2 ligand drawn as drawing 430 (by the text apparently 8313)), the “Degradation of BRD4, combination with MDM2 ligand [drawing 430]” value was “✓ (A black check mark indicates efficacy of 30% to 70% or higher protein degradation)”. In addition, on BRD4 (Table 2, aromatic 1,2-diol-containing MDM2 ligand drawn as drawing 431 (by the text apparently 8314)), the “Degradation of BRD4, combination with MDM2 ligand [drawing 431]” value is reported as “✓ (A black check mark indicates efficacy of 30% to 70% or higher protein degradation)”. Also, on BRD4 (Table 3, aromatic 1,2-diol-containing VHL ligand drawn as drawing 442 (by the text apparently 8305)), the “Degradation of BRD4, combination with VHL ligand [drawing 442]” value is listed as “✓ (A black check mark indicates efficacy of 30% to 70% or higher protein degradation)”.
Consider `COc1ccc2c(c1)C(c1ccc(Cl)cc1)=N[C@@H](CC(=O)Nc1cccc(B(O)O)c1)c1nnc(C)n1-2` [BRD-E73, (3-(2-((4S)-6-(4-chlorophenyl)-8-methoxy-1-methyl-4H-benzo[f][1,2,4]triazolo[4,3-a][1,4]diazepin-4-yl)acetamido)phenyl)boronic acid], for which the “toxicity / loss of cellular viability” value with MV-4-11 cells (setting [1]) was “reduced viability; also recorded: increased toxicity”.
On to `COc1ccc2c(c1)C(c1ccc(Cl)cc1)=N[C@@H](CC(=O)NCCCCCNC(=O)c1cccc(O)c1O)c1nnc(C)n1-2` [BRD-N8, N-(5-(2-((4S)-6-(4-chlorophenyl)-8-methoxy-1-methyl-4H-benzo[f][1,2,4]triazolo[4,3-a][1,4]diazepin-4-yl)acetamido)pentyl)-2,3-dihydroxybenzamide], for which the “toxicity / loss of cellular viability” value in the experiment on MV-4-11 cells (1 nM-100 μM, cotreated 1:1 with CRBN ligand 8049) is listed as “a concentration-dependent loss in cellular viability was observed; also recorded: increased toxicity”.
Consider `CCNC(=O)C[C@@H]1N=C(c2ccc(Cl)cc2)c2cc(OCCOCCNC(=O)c3ccc(O)c(O)c3)ccc2-n2c(C)nnc21` [BRD-N38, N-(2-(2-(((4S)-6-(4-chlorophenyl)-4-(2-(ethylamino)-2-oxoethyl)-1-methyl-4H-benzo[f][1,2,4]triazolo[4,3-a][1,4]diazepin-8-yl)oxy)ethoxy)ethyl)-3,4-dihydroxybenzamide], for which, on BRD4 (Table 4), the “Degradation of BRD4, combination with CRBN ligand [drawing 457]” value (from here on “Degradation of BRD4 … [drawing 457]”) was “✓ (A black check mark indicates efficacy of 30% to 70% or higher protein degradation)”.
Take `CCNC(=O)C[C@@H]1N=C(c2ccc(Cl)cc2)c2cc(OCCOCCOCCNC(=O)c3ccc(O)c(O)c3)ccc2-n2c(C)nnc21` [BRD-N40]: the “Degradation of BRD4, combination with VHL ligand [drawing 465]” value at BRD4 (Table 6, aryl-boronic acid-containing VHL ligand drawn as drawing 465) is “✓ (A black check mark indicates efficacy of 30% to 70% or higher protein degradation)”.
On to `COc1ccc2c(c1)C(c1ccc(Cl)cc1)=N[C@@H](CC(=O)NCCOCCOCCOCCNC(=O)c1ccc(O)c(O)c1)c1nnc(C)n1-2` [BRD-N44], for which the “Degradation of BRD4 … [drawing 457]” value at BRD4 (Table 4) is “✓ (A black check mark indicates efficacy of 30% to 70% or higher protein degradation)”.
As to `CCNC(=O)C[C@@H]1N=C(c2ccc(Cl)cc2)c2cc(-c3ccc4cc(O)c(O)cc4c3)ccc2-n2c(C)nnc21` [BRD-N67], the “Degradation of BRD4 … [drawing 457]” value on BRD4 (Table 4) is recorded as “✓ (A black check mark indicates efficacy of 30% to 70% or higher protein degradation)”. Moreover, the “Degradation of BRD4, combination with CRBN ligand [drawing 458]” value on BRD4 (Table 4, aryl-boronic acid-containing CRBN ligand drawn as drawing 458 (by the text apparently 8049)) is given as “✓ (A black check mark indicates efficacy of 30% to 70% or higher protein degradation)”.
As for `COc1ccc2c(c1)C(c1ccc(Cl)cc1)=N[C@@H](CC(=O)Nc1ccc(O)c(O)c1)c1nnc(C)n1-2` [BRD-N68], at BRD4 (Table 4), the “Degradation of BRD4 … [drawing 457]” value is recorded as “✓ (A black check mark indicates efficacy of 30% to 70% or higher protein degradation)”.
The same measure, in the same setting: as for `COc1ccc2c(c1)C(c1ccc(Cl)cc1)=N[C@@H](CC(=O)NCCOCCOCCOCCOCCNC(=O)c1ccc(O)c(O)c1)c1nnc(C)n1-2` [BRD-N69], the entry is “✓ (A black check mark indicates efficacy of 30% to 70% or higher protein degradation)”.
In the case of `CCNC(=O)C[C@@H]1N=C(c2ccc(Cl)cc2)c2cc(OCCOCCOCCOCCOCCOCCNC(=O)c3ccc(O)c(O)c3)ccc2-n2c(C)nnc21` [BRD-N70, N-(17-(((4S)-6-(4-chlorophenyl)-4-(2-(ethylamino)-2-oxoethyl)-1-methyl-4H-benzo[f][1,2,4]triazolo[4,3-a][1,4]diazepin-8-yl)oxy)-3,6,9,12,15-pentaoxaheptadecyl)-3,4-dihydroxybenzamide], the “Degradation of BRD4 … [drawing 457]” value on BRD4 (Table 4) is listed as “✓ (A black check mark indicates efficacy of 30% to 70% or higher protein degradation)”.
Regarding `CCNC(=O)C[C@@H]1N=C(c2ccc(Cl)cc2)c2cc(OCCOCCOCCOCCOCCOCCNC(=O)c3cccc(O)c3O)ccc2-n2c(C)nnc21` [BRD-N71, N-(17-(((4S)-6-(4-chlorophenyl)-4-(2-(ethylamino)-2-oxoethyl)-1-methyl-4H-benzo[f][1,2,4]triazolo[4,3-a][1,4]diazepin-8-yl)oxy)-3,6,9,12,15-pentaoxaheptadecyl)-2,3-dihydroxybenzamide], on BRD4 (Table 4), the “Degradation of BRD4 … [drawing 457]” value is reported as “✓ (A black check mark indicates efficacy of 30% to 70% or higher protein degradation)”. Also, the “Degradation of BRD4, combination with MDM2 ligand [drawing 464]” value at BRD4 (Table 5, aryl-boronic acid-containing MDM2 ligand drawn as drawing 464 (apparently 8312)) was “✓ (A black check mark indicates efficacy of 30% to 70% or higher protein degradation)”.
As for `O=C1CCC(N2C(=O)c3cccc(CNC(=O)c4cccc(B(O)O)c4)c3C2=O)C(=O)N1` (stereo not shown) [compound 8049], in the experiment with MV-4-11 cells (1 nM-100 μM, monomer alone), the “loss of cellular viability (CellTiter-Glo)” value is listed as “little loss of viability was observed”.
